# Measurements as given in patent US20210189342A1, “COMPOSITIONS AND METHODS FOR MODULATING MONOCYTE AND MACROPHAGE INFLAMMATORY PHENOTYPES AND IMMUNOTHERAPY USES THEREOF” (Verseau Therapeutics, Inc., priority 2018, published 2021).
# Tested on: IGSF6
# Assay: siRNA dose response, IGSF6 mRNA knockdown, Dual-Glo Luciferase Assay
# Format: cell-based, human
# Settings: Hepa1-6 + reporter plasmid, 24 hr
# Protocol: (§1) Dose response curves for siRNAs were generated in vitro using a variety of cell lines according to Table 4.
# (§2) Briefly, cells were seeded in 96-well plates and reverse transfected with siRNA, Lipofectamine® 2000 (0.5 uL/well; ThermoFisher), and, in some cases, a reporter plasmid (50 ng/well). The reporter plasmid (psiCHECK™-2, Promega) encoded both firefly luciferase and the gene of interest fused to renilla luciferase; silencing of the gene of interest results in proportional silencing of renilla luciferase but leaves firefly luciferase unaffected as an internal control.
# (§3) After 24 hr incubation at 37° C., mRNA knockdown was measured using an endpoint assay. For targets without a reporter plasmid, a branched DNA (bDNA) assay was performed according to the manufacturer's instructions (QuantiGene® Singleplex Gene Expression Assay, ThermoFisher) to measure both the target gene and GAPDH (housekeeping gene) mRNA. Data are plotted as siRNA concentration (nM) vs. remaining mRNA (ratio of target gene to GAPDH, normalized to mock siRNA-transfected cells). For targets with a reporter plasmid, a Dual-Glo® Luciferase Assay was performed according to the manufacturer's instructions (Promega) to measure firefly and renilla luciferase expression. Data are plotted as siRNA concentration (nM) vs. remaining mRNA (ratio of renilla to firefly luminescence, normalized to mock siRNA-transfected cells).
# (§4) For all dose response curves, a 4-parameter logistic model was applied to determine the IC50 of each siRNA sequence (Table 5 and FIG. 2). Data shown in Table 5 and FIG. 2 represent the mean of quadruplicates, +/−standard deviation.
row,Substance,IC50
1,"XD-09645: siRNA targeting IGSF6 (sense 5'-agAAcuAuAccAuaAGAGAdTsdT-3'; antisense 5'-UCUCUuAUGGuAuAGUUCUdTsdT-3'; as printed in the source, key not given here)",0.034 nM
2,"XD-09646: siRNA targeting IGSF6 (sense 5'-ccAuAAGAGAcAuguGGAAdTsdT-3'; antisense 5'-UUCcAcAUGUCUCUuAUGGdTsdT-3'; RNA with 2'-O-methyl and phosphorothioate modifications, case key not given here, as printed in the source, key not given here)",0.01 nM
3,"XD-09642: siRNA targeting IGSF6 (sense 5'-gaAGcGAGAGcuAaAcAGAdTsdT-3'; antisense 5'-UCUGUUuAGCUCUCGCUUCdTsdT-3'; RNA with 2'-O-methyl and phosphorothioate modifications, case key not given here, as printed in the source, key not given here)",0.035 nM
4,"XD-09648: siRNA targeting IGSF6 (sense 5'-ccAuAGAAAcGuuuuAAuudTsdT-3'; antisense 5'-AAUuAAAACGUUUCuAUGGdTsdT-3'; as printed in the source, key not given here)",0.503 nM
5,"XD-09647: siRNA targeting IGSF6 (sense 5'-ggccAuAGAAAcGuuuuAAdTsdT-3'; antisense 5'-UuAAAACGUUUCuAUGGCCdTsdT-3'; as printed in the source, key not given here)",0.069 nM
6,"XD-09643: siRNA targeting IGSF6 (sense 5'-guGcucGGcGuAuuuuucAdTsdT-3'; antisense 5'-UGAAAAAuACGCCGAGcACdTsdT-3'; as printed in the source, key not given here)",0.077 nM

# Tested on: LILRB2
# Assay: siRNA dose response, LILRB2 mRNA knockdown, Dual-Glo Luciferase Assay
# Format: cell-based, human
# Settings: Hepa1-6 + reporter plasmid, 24 hr
# Protocol: as §1, §2, §3, §4
row,Substance,IC50
1,"XD-10592: siRNA targeting LILRB2 (sense 5'-gcGAuAUGGcuGucAGuasa-3'; antisense 5'-dTUACUGAcAGCcAUAUCGCusu-3'; RNA with 2'-O-methyl and phosphorothioate modifications, case key not given here, as printed in the source, key not given here)",0.459 nM
2,"XD-10591: siRNA targeting LILRB2 (sense 5'-ggAuAcGAccAGAgcuugsa-3'; antisense 5'-dTCAAGCUCUGGUCGuAUccusu-3'; RNA with 2'-O-methyl and phosphorothioate modifications, case key not given here, as printed in the source, key not given here)",0.073 nM
3,"XD-10594: siRNA targeting LILRB2 (sense 5'-gguuAuGAcuuGAccucusa-3'; antisense 5'-dTAGAGUUcAAGUcAuAACCusu-3'; RNA with 2'-O-methyl and phosphorothioate modifications, case key not given here, as printed in the source, key not given here)",0.089 nM
4,"XD-10593: siRNA targeting LILRB2 (sense 5'-cuAuGGUuAuGAcuuGAasa-3'; antisense 5'-dTUUcAAGUcAuAACcAuAGusu-3'; RNA with 2'-O-methyl and phosphorothioate modifications, case key not given here, as printed in the source, key not given here)",0.136 nM
5,"XD-10597: siRNA targeting LILRB2 (sense 5'-cccAcuCcGucuAaGAucsa-3'; antisense 5'-dTGAUCUuAGACGGAGUGGGusu-3'; RNA with 2'-O-methyl and phosphorothioate modifications, case key not given here, as printed in the source, key not given here)",0.059 nM
6,"XD-10590: siRNA targeting LILRB2 (sense 5'-caGcAuCuuGGAuuAcAcsa-3'; antisense 5'-dTGUGuAAUCcAAGAUGCUGusu-3'; RNA with 2'-O-methyl and phosphorothioate modifications, case key not given here, as printed in the source, key not given here)",0.068 nM
7,"XD-10599: siRNA targeting LILRB2 (sense 5'-cacuccGucuAAGaucAasa-3'; antisense 5'-dTUUGAUCUuAGACGGAGUGusu-3'; RNA with 2'-O-methyl and phosphorothioate modifications, case key not given here, as printed in the source, key not given here)",0.127 nM
8,"XD-10598: siRNA targeting LILRB2 (sense 5'-ccAcucCGucuAAgAucasa-3'; antisense 5'-dTUGAUCUuAGACGGAGUGGusu-3'; as printed in the source, key not given here)",0.109 nM

# Tested on: CLEC7A
# Assay: siRNA dose response, CLEC7A mRNA knockdown, Dual-Glo Luciferase Assay
# Format: cell-based, human
# Settings: Hepa1-6 + reporter plasmid, 24 hr
# Protocol: as §1, §2, §3, §4
row,Substance,IC50
1,"XD-10565: siRNA targeting CLEC7A (sense 5'-ccAuAAGcGAAucuuAAuudTsdT-3'; antisense 5'-AAUuAAGAUUCGCUuAUGGdTsdT-3'; RNA with 2'-O-methyl and phosphorothioate modifications, case key not given here, as printed in the source, key not given here)",< 0.004 nM
2,"XD-10564: siRNA targeting CLEC7A (sense 5'-ggGuAAGccAuAAgcGaaudTsdT-3'; antisense 5'-AUUCGCUuAUGGCUuACCCdTsdT-3'; RNA with 2'-O-methyl and phosphorothioate modifications, case key not given here, as printed in the source, key not given here)",< 0.004 nM
3,"XD-10561: siRNA targeting CLEC7A (sense 5'-ggucAAGAuAAAugcAGAAdTsdT-3'; antisense 5'-UUCUGcAUUaAUCUUAACCdTsdT-3'; RNA with 2'-O-methyl and phosphorothioate modifications, case key not given here, as printed in the source, key not given here)",0.009 nM
4,"XD-10568: siRNA targeting CLEC7A (sense 5'-ccuAGAAucuuGuauAAuAdTsdT-3'; antisense 5'-uAUuAuAcAAGAUUCuAGGdTsdT-3'; as printed in the source, key not given here)",0.016 nM
5,"XD-10569: siRNA targeting CLEC7A (sense 5'-gcucucAuAGGAAaGuuuudTsdT-3'; antisense 5'-AAAACUUUCCuAUGAGAGCdTsdT-3'; as printed in the source, key not given here)",0.016 nM
6,"XD-10566: siRNA targeting CLEC7A (sense 5'-ugccAuAucucuAauAGAAdTsdT-3'; antisense 5'-UUCuAUuAGAGAuAUGGcAdTsdT-3'; RNA with 2'-O-methyl and phosphorothioate modifications, case key not given here, as printed in the source, key not given here)",0.006 nM
7,"XD-10567: siRNA targeting CLEC7A (sense 5'-gccuAGAAucuuGuAuAAudTsdT-3'; antisense 5'-AUuAuAcAAGAUUCuAGGCdTsdT-3'; as printed in the source, key not given here)",0.023 nM
8,"XD-10562: siRNA targeting CLEC7A (sense 5'-agGuAGGcuAGuAuuAuuudTsdT-3'; antisense 5'-AAAuAAuACuAGCCuACCUdTsdT-3'; as printed in the source, key not given here)",0.033 nM
